# From the kinase profiling compilation of Christmann-Franck et al. (2016)
# Columns and labels:
# Assay in all cases: KINOMEscan competition binding
# Conditions in all cases: compound 1.0 µM
# TLK2 (human) = TLK2 (human) (UniProt Q86UE8)
# MAPKAPK2 (human) = MAPKAPK2 (human) (UniProt P49137)
# [1] = tested on: PIK3CA (human), P42336 [M1043I]
# MAP3K15 (human) = MAP3K15 (human) (UniProt Q6ZN16)
# TNK1 (human) = TNK1 (human) (UniProt Q13470)
# PRKCQ (human) = PRKCQ (human) (UniProt Q04759)
# [2] = tested on: EGFR (human), P00533 [L861Q]
# SGK3 (human) = SGK3 (human) (UniProt Q96BR1)
# PIM3 (human) = PIM3 (human) (UniProt Q86V86)
# BMX (human) = BMX (human) (UniProt P51813)
# DSTYK (human) = DSTYK (human) (UniProt Q6XUX3)
# PLK1 (human) = PLK1 (human) (UniProt P53350)
# ROCK2 (human) = ROCK2 (human) (UniProt O75116)
# FER (human) = FER (human) (UniProt P16591)
# MAPK13 (human) = MAPK13 (human) (UniProt O15264)
# STK32A (human) = STK32A (human) (UniProt Q8WU08)
# MAP3K9 (human) = MAP3K9 (human) (UniProt P80192)
# [3] = tested on: PIK3CA (human), P42336 [E545A]
# MELK (human) = MELK (human) (UniProt Q14680)
# RPS6KA1 KD2 (human) = RPS6KA1 KD2 (human) (UniProt Q15418)
# SLK (human) = SLK (human) (UniProt Q9H2G2)
# [4] = tested on: PIK3CA (human), P42336 [E542K]
# CLK3 (human) = CLK3 (human) (UniProt P49761)
# CASK (human) = CASK (human) (UniProt O14936)
# RPS6KA4 KD2 (human) = RPS6KA4 KD2 (human) (UniProt O75676)
# [5] = target: TYK2 JH2 pseudokinase (human) (UniProt P29597)
# NEK3 (human) = NEK3 (human) (UniProt P51956)
# INSR (human) = INSR (human) (UniProt P06213)
# PIM1 (human) = PIM1 (human) (UniProt P11309)
# NEK5 (human) = NEK5 (human) (UniProt Q6P3R8)
# MAPK12 (human) = MAPK12 (human) (UniProt P53778)
# FLT4 (human) = FLT4 (human) (UniProt P35916)
# HCK (human) = HCK (human) (UniProt P08631)
# HIPK3 (human) = HIPK3 (human) (UniProt Q9H422)
# HIPK2 (human) = HIPK2 (human) (UniProt Q9H2X6)
# PHKG1 (human) = PHKG1 (human) (UniProt Q16816)
# AAK1 (human) = AAK1 (human) (UniProt Q2M2I8)
# PAK7 (human) = PAK7 (human) (UniProt Q9P286)
# AURKB (human) = AURKB (human) (UniProt Q96GD4)
# Sequence of PIK3CA (human), P42336 [E545A] (P42336 whole entry E545A, looked up): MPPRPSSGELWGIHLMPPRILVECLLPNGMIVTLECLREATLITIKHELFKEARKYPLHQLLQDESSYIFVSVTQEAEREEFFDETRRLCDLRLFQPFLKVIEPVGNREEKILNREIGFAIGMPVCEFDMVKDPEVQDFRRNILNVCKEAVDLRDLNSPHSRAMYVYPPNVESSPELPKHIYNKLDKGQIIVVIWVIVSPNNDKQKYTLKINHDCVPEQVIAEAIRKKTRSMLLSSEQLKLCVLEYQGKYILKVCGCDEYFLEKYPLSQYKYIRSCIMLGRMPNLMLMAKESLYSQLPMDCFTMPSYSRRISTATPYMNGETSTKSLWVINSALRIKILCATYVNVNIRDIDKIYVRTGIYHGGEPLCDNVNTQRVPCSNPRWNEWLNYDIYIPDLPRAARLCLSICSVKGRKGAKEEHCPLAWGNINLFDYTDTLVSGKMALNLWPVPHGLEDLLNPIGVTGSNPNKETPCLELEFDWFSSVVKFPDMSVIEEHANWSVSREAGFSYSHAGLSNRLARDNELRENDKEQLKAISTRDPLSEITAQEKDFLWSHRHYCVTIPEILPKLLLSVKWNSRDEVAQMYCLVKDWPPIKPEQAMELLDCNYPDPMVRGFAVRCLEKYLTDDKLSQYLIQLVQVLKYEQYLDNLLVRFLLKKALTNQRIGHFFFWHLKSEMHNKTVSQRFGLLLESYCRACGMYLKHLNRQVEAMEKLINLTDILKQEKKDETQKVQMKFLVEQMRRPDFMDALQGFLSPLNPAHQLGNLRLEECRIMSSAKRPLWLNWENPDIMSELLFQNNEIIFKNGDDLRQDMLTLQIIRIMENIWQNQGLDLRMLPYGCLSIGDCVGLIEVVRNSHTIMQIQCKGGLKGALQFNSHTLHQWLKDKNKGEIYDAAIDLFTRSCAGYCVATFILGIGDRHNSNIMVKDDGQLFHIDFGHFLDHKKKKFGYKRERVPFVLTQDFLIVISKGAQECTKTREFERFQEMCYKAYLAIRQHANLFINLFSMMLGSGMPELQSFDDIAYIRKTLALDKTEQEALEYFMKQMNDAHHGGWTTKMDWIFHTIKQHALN
# Sequence of MAPK12 (human) (P53778 whole entry, looked up): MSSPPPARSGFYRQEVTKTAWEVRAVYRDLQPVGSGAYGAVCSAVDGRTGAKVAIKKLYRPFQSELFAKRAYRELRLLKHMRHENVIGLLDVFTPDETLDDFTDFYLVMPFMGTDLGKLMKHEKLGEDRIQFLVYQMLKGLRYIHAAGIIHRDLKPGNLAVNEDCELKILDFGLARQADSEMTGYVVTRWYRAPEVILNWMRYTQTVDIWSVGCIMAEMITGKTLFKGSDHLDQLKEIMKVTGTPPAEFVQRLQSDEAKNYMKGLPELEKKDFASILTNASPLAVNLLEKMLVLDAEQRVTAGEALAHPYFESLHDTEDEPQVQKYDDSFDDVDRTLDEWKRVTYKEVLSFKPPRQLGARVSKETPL
# Sequence of MAPKAPK2 (human) (P49137 whole entry, looked up): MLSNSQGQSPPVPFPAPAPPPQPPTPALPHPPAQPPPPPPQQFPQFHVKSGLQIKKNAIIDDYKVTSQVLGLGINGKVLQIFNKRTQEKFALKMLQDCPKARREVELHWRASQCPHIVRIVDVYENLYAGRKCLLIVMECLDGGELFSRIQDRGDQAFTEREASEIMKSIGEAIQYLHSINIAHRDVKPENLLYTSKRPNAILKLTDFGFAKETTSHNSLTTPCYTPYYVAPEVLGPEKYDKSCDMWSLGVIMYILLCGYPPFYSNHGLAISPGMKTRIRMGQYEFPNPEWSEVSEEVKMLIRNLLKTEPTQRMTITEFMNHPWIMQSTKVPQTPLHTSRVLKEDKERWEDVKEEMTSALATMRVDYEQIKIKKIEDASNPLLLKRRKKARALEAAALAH
# Sequence of RPS6KA4 KD2 (human) (O75676 whole entry, looked up): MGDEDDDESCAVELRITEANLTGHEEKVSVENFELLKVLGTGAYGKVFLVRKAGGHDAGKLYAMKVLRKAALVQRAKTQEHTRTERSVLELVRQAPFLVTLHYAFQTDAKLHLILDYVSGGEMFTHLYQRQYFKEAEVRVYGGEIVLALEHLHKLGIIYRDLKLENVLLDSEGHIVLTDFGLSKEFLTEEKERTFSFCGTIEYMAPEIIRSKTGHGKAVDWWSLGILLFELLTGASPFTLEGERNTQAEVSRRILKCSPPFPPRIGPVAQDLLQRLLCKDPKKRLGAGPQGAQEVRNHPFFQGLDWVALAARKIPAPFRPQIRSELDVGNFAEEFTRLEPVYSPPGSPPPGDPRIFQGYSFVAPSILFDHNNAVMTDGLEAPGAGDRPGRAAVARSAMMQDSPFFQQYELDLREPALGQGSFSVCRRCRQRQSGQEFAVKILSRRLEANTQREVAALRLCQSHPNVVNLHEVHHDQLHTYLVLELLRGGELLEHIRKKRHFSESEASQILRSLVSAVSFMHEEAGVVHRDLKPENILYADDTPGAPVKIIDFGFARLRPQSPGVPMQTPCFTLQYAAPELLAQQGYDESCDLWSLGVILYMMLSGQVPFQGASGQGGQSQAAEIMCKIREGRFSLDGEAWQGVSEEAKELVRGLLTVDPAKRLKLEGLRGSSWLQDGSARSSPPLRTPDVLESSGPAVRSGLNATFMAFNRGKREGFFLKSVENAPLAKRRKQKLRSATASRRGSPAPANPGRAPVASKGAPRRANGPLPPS
# Sequence of DSTYK (human) (Q6XUX3 whole entry, looked up): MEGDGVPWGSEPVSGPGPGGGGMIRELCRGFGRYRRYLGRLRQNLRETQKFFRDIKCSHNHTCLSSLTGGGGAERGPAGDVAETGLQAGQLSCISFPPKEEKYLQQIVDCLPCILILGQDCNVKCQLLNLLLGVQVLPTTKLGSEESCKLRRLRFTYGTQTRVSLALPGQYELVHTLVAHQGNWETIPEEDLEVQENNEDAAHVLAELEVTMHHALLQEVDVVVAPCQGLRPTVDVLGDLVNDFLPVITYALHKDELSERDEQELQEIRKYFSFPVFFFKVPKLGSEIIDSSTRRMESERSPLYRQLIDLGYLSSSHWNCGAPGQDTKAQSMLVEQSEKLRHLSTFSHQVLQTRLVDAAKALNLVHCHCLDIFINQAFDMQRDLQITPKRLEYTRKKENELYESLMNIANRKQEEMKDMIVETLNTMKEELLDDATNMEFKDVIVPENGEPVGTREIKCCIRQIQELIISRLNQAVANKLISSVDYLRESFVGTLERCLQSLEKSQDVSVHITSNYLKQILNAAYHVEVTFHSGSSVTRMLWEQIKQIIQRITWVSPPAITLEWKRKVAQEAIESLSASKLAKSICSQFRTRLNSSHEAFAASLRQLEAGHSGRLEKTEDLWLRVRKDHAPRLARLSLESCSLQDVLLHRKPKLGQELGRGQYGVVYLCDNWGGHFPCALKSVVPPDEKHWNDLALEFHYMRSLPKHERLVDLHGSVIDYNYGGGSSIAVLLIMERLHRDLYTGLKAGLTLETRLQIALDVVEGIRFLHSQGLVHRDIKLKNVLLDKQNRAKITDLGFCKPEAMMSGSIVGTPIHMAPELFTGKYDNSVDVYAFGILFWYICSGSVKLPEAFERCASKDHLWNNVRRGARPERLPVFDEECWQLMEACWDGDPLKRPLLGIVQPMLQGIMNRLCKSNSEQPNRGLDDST
# Sequence of MELK (human) (Q14680 whole entry, looked up): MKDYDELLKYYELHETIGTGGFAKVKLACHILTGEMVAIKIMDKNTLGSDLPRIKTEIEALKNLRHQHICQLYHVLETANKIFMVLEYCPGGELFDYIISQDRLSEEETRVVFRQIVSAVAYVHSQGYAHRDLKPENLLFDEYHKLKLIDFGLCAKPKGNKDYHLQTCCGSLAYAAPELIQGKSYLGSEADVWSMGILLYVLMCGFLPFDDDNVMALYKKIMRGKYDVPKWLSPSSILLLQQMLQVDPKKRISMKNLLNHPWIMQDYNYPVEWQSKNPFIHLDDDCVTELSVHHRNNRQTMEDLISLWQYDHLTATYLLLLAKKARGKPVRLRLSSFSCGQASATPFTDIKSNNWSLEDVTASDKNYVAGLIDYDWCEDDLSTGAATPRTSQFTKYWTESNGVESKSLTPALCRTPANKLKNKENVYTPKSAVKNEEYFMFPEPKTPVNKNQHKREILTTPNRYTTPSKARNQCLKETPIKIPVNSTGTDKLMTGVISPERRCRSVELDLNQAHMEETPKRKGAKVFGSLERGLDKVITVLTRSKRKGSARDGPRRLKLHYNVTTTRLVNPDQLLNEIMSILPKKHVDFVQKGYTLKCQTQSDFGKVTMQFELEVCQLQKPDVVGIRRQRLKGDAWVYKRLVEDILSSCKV
# Sequence of PIM1 (human) (P11309 whole entry, looked up): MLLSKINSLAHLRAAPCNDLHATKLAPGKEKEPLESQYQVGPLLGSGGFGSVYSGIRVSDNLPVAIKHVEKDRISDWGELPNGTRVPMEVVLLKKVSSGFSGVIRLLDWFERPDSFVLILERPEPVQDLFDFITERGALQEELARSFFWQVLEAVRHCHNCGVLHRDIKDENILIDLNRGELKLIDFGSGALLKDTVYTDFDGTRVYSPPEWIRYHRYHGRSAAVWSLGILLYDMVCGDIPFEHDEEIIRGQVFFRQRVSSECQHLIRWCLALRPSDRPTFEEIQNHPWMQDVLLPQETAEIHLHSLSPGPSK
# Sequence of SGK3 (human) (Q96BR1 whole entry, looked up): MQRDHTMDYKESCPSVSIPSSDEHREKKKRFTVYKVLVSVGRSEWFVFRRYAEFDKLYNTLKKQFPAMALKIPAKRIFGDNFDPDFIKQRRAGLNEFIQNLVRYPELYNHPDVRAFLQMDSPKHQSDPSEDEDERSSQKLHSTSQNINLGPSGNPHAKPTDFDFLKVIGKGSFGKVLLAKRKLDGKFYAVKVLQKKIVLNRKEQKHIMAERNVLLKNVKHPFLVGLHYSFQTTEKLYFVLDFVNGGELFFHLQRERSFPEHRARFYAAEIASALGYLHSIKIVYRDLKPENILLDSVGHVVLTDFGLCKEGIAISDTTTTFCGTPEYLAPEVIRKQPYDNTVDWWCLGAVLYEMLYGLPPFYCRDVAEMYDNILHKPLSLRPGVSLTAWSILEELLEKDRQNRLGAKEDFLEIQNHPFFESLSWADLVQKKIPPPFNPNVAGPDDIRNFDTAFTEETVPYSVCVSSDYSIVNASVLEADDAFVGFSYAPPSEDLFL
# Sequence of PIK3CA (human), P42336 [M1043I] (P42336 whole entry M1043I, looked up): as the sequence (P42336 whole entry E545A, looked up) above, with A545E, M1043I counted along it
structure (smiles),measurement,setting,value
CNc1nc(Nc2ccc(C(=O)N3CCOCC3)cc2OC)ncc1Cl,"kinase still bound, per cent of control",TLK2 (human),100%
same,"kinase still bound, per cent of control",MAPKAPK2 (human),95%
same,"kinase still bound, per cent of control",[1],93%
same,"kinase still bound, per cent of control",MAP3K15 (human),97%
same,"kinase still bound, per cent of control",TNK1 (human),66%
same,"kinase still bound, per cent of control",PRKCQ (human),100%
same,"kinase still bound, per cent of control",[2],100%
same,"kinase still bound, per cent of control",SGK3 (human),100%
same,"kinase still bound, per cent of control",PIM3 (human),100%
same,"kinase still bound, per cent of control",BMX (human),100%
same,"kinase still bound, per cent of control",DSTYK (human),100%
same,"kinase still bound, per cent of control",PLK1 (human),100%
same,"kinase still bound, per cent of control",ROCK2 (human),100%
same,"kinase still bound, per cent of control",FER (human),100%
same,"kinase still bound, per cent of control",MAPK13 (human),94%
same,"kinase still bound, per cent of control",STK32A (human),100%
same,"kinase still bound, per cent of control",MAP3K9 (human),100%
same,"kinase still bound, per cent of control",[3],68%
same,"kinase still bound, per cent of control",MELK (human),100%
same,"kinase still bound, per cent of control",RPS6KA1 KD2 (human),88%
same,"kinase still bound, per cent of control",SLK (human),100%
same,"kinase still bound, per cent of control",[4],100%
same,"kinase still bound, per cent of control",CLK3 (human),100%
same,"kinase still bound, per cent of control",CASK (human),97%
same,"kinase still bound, per cent of control",RPS6KA4 KD2 (human),23%
same,"kinase still bound, per cent of control",[5],100%
same,"kinase still bound, per cent of control",NEK3 (human),100%
same,"kinase still bound, per cent of control",INSR (human),82%
same,"kinase still bound, per cent of control",PIM1 (human),100%
same,"kinase still bound, per cent of control",NEK5 (human),100%
same,"kinase still bound, per cent of control",MAPK12 (human),100%
same,"kinase still bound, per cent of control",FLT4 (human),93%
same,"kinase still bound, per cent of control",HCK (human),100%
same,"kinase still bound, per cent of control",HIPK3 (human),47%
same,"kinase still bound, per cent of control",HIPK2 (human),100%
same,"kinase still bound, per cent of control",PHKG1 (human),76%
same,"kinase still bound, per cent of control",AAK1 (human),38%
same,"kinase still bound, per cent of control",PAK7 (human),62%
same,"kinase still bound, per cent of control",AURKB (human),100%
